Reference: patent publication US20070043108A1, “Use of equol for ameliorating or preventing neuropsychiatric and neurodegenerative diseases or disorders” (priority 2002, published 2007)

Columns and labels:
[1] = system: Male Long-Evans rats; experiment: Example 13: racemic equol injections in male rats on Phyto-Free diet; type: in vivo, rat
From the text: Prior to initiation of a Phyto-Free diet period Male Long-Evans rats are fed a Phyto-200 diet, as described in previous examples. The rats are placed on a diet containing the Phyto-Free diet at approximately 52 days of age and randomly assigned to three groups. Baseline body weights after 14 days and 21 days on the Phyto-Free diet for all rats are similar, shown in FIGS. 43 and 44, respectively. Beginning at 73 days of age, rats receive daily subcutaneous 0.1 cc injections of vehicle (peanut oil), 1 milligram of a racemic mixture of equol in vehicle (0.83 mg/kg body weight/day), or 5 milligrams of a racemic mixture of equol in vehicle (4.2 mg/kg body weight/day) once every three days.

[2] = system: mid-aged Long-Evans female rats; experiment: Example 17: Porsolt forced swim test and body weight in mid-aged female rats; type: in vivo, rat
Procedure: The female rats were exposed (from time of conception) to either a phytoestrogen-rich (Phyto-600) or a phytoestrogen-free (Phyto-free) diet.
At 12 months of age, the animals were analyzed using the Porsolt forced swim test that is a standard preclinical test with applications to humans for investigating the neurobiology of depression and of action of antidepressant agent (R. D. Porsolt, M. Pichon and M Jalfre, Nature 266: 730-732, 1977; and M. A. Geyer & A. Markou, in Psychopharmacology: The Fourth Generation of Progress, NY, Raven Press, pp. 787-798, 1995).
The test is designed to force rats to swim vigorously. Over time, some of the animals may become immobile which is considered a condition of behavioral despair. The total time an animal is immobile is an index of despair or depression. […] S. Hall, J. Comp. Psych., 18: 385-403, 1934), increased boli numbers during the test would indicate heighten emotional behavior. All of these parameters were recorded in this study and quantified by AnyMaze® computer software and the total time of the Porsolt forced swim test was 480 seconds or 8 minutes.
The animals were tested twice.
Test 1 compared diet exposure alone, shown as A in FIGS. 58-69 and labeled as “before equol injections.”
In the second stage of testing the Phyto-free fed females were injected with equol@ […] or 2.5 mg/kg via subcutaneous administration) for 8 days while the Phyto-600 fed females received dimethylsulfoxide (DMSO) vehicle control injections. (DMSO has been used in medicine due to its ability to penetrate deeply through the skin and other membranes without damaging them and ability to carry compounds into the circulation).
Test 2 assessed depressive behaviors following the equol treatments, shown as B in FIGS. 58-69 and labeled as “after equol injections.”

[3] = system: adult Long-Evans male rats; conditions: equol-treated male rats vs control, previously reported in US 2005/0245492; cited from earlier work
[4] = Competition and binding studies of equol with other labelled steroids
[5] = system: Long-Evans rats, male offspring; experiment: Example 19: elevated plus maze of adult male offspring after pre- and early postnatal treatment; type: in vivo, rat; conditions: offspring tested at about 90 days
Procedure: Pregnant Long-Evans rats were treated via daily subcutaneous injections from gestational day 14 through 20 and during lactation from postnatal day 2 through 25 with: 1) control-DMSO vehicle or, 2) genistein@ 3 mg/day or 3) equol@ 3 mg/day according to the treatment groups. All animals were fed a phytoestrogen-low diet throughout these studies (10 ppm isoflavones). There were no significant differences in maternal body weights just before birth among the treatment groups. […] The maternal and male offspring genistein and equol levels @ 25 days post birth) paralleled that of the treatments administered.
At approximately 90 days of age the male offspring were tested by treatments (control, genistein and equol) in the EPM that was video-taped for 3 minutes and later recorded for the number of entries into—and the percentage of total time spent—on the open arms, as previously described. […] Equol time intervals were 2-fold greater than genistein values and genistein levels were approximately 9-fold greater than controls.

[6] = target: T1, ERβ (Rattus norvegicus, UniProt Q62986); experiment: Competition binding of equol enantiomers with [3H]E2 for in vitro translated ERβ
T1 construct: Full length rat ERα expression vector (pcDNA-ERα; RH Price UCSF) and ERβ expression vector (pcDNA-ERβ; T A Brown, Pfizer; made in house; host or cells: TnT-coupled rabbit reticulocyte lysate in vitro translation (Promega)
Procedure: In vitro binding studies were performed to examine the relative affinities of S— and R-enantiomeric equol with the estrogen receptors ERα and ERβ.
Synthesis of Hormone Receptor Proteins: Full length rat ERα expression vector (pcDNA-ERα; RH Price UCSF) and ERβ expression vector (pcDNA-ERβ; T A Brown, Pfizer, Groton, […].) were used to synthesize hormone receptors in vitro using the TnT-coupled reticulocyte lysate system (Promega, Madison, Wis.) with T7-RNA polymerase, during a 90 min reaction at 30° C. Translation reaction mixtures were stored at −80° C. until further use.
Saturation isotherms: In order to calculate and establish the binding affinity of the S-equol and R-equol enantiomers for ERα and ERβ, 100 μL aliquots of reticulocyte lysate supernatant were incubated at optimal time and temperature; 90 min at room temperature (ERβ) and 18 hrs at 4° C. (ERα), with increasing (0.01-100 nm) concentrations of [3H] […] These times were determined empirically and represent optimal binding of receptor with estrogen. Nonspecific binding was assessed using a 300-fold excess of the ER agonist diethylstilbestrol, in parallel tubes. Following incubation, bound and unbound [3H]E2 were separated by passing the incubation reaction through a 1 mL lipophilic Sephadex LH-20 (Sigma-Aldrich Co., Saint Louis, Mo.) column Columns were constructed by packing a disposable pipette tip (1 mL; Labcraft, Curtin Matheson Scientific, Inc, Houston, Tex.) with TEGMD (10 mm Tris-Cl, 1.5 mm EDTA, 10% glycerol, 25 mm molybdate, and 1 mm dithiothreitol, pH 7.4)-saturated Sephadex according to previously published protocols (Wanda et al., 1986; O'Keefe and Handa, 1990). For chromatography, the columns were re-equilibrated with TEGMD (100 μL), and the incubation reactions were added individually to each column and allowed to incubate on the column for an additional 30 min. Following this incubation, 600 μL of TEGMD were added to each column, flow-through was collected, 4 mL scintillation fluid was added, and samples were counted (5 min each) in an 2900 TR Packard scintillation counter (Packard Bioscience, Meriden, Conn.).
Competition binding studies were used to assess the estrogenic properties of equol's S-equol and R-equol enantiomers. Based on the ability of S and R to compete with [3H]

[7] = Test 2, Phyto-free females after equol for 8 days

T1 sequence (Q62986 whole entry): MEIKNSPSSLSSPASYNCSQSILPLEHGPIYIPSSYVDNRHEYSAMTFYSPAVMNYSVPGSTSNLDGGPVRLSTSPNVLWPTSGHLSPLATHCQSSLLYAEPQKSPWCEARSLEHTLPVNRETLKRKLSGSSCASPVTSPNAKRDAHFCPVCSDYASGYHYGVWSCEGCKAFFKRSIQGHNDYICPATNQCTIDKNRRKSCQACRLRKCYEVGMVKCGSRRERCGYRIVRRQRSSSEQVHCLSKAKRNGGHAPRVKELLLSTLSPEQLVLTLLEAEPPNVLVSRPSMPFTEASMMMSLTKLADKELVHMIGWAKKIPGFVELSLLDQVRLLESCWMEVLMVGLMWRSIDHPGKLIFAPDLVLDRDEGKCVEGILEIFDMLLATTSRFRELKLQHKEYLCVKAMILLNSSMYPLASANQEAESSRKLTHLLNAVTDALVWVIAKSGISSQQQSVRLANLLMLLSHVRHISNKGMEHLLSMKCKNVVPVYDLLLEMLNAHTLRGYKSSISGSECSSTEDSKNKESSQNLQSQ

Compound	reduction in adipose tissue mass ([1]; 101-day-old rats, vs controls)	testes weight ([1]; 28 days after start of injections)	body weights and average body weight gains ([1]; at 80 and 88 days of age, 1 or 5 mg racemic equol sc, vs controls)	average body weight gains ([1]; at 95 and 101 days, vs control)	total distance traveled ([2]; Test 2, Phyto-free females after equol 5 mg/day sc for 8 days)	number of boli [2, 7]	number of dives [2, 7]	total time immobile [2, 7]	total time mobile ([2]; Test 2, after vs before equol injections)	decrease in body weight over controls ([2]; after the 8 day treatment interval) [fold]	Body Weight Loss (grams) ([2]; mid-aged females, end of 8 day treatment, ±SEM)	5α-DHT [3]	prostate weight [3]	serum testosterone, luteinizing hormone (LH) or 17β-estradiol levels [3]	binding to [3H]E2, [3H]T, [3H]DHEA, [3H]CORT and [3H]progesterone [4]	entries into the open arms vs controls ([5]; 3 mg/day sc to dams)	time in the open arms vs controls ([5]; 3 mg/day sc to dams)	open arm time intervals, fold greater than genistein values [5] [fold]	affinity for ERβ, fold less [6]	Kd ([6]; competition with [3H]E2, in vitro translated ER) [nM]
Oc1ccc(C2COc3cc(O)ccc3C2)cc1 (racemic) [equol, 7-hydroxy-3(4′hydroxyphenyl)-chroman]	approximately 33%	no significant alterations	not significantly different from controls	significantly reduced	increased and similar to control values	reduced after equol treatments	significantly reduced and comparable to control levels	significantly reduced and similar to controls	significantly increased	2.6	−31.2 (±4.8*) grams	significant reductions	significant reductions	no alteration	without any occurrences of binding	significantly greater	significantly greater	2	–	–
Oc1ccc([C@@H]2COc3cc(O)ccc3C2)cc1 [R-equol]	–	–	–	–	–	–	–	–	–	–	–	–	–	–	–	–	–	–	approximately 100 fold	15.4 ± 1.31
